Legend:
[1] = system: rat olfactory neuroepithelial cells (ONCs); assay: Western blot analysis of rat ONCs (βIII tubulin, OMP, Golf, ADCY3 relative to GAPDH); type: cell-based; settings: day 9
Protocol: Olfactory neuroepithelia of rats were isolated from E17 embryos of wistar rats and 40 embryos per trial were used. After isolation, olfactory neuroepithelia were digested in Hanks' balanced salt solution (Roche Molecular Biochemicals, Indianapolis, Ind., USA) containing 0.125% Trypsin/EDTA for 30 minutes at 37° C. The cell suspension was then filtered through a 70 μm cell strainer to eliminate cell aggregates and debris, and adjusted to 24×10^4 cells/mL (equivalent to 5×10^4 cells/cm^2). Finally, a 2 mL cell suspension was added to six-wells coated with 0.85 μg/cm^2 poly-L-lysine (PLL). ONCs were cultured at 37° C. in a humidified 5% CO2 and 95% air atmosphere. Cell morphology was observed under an inverse phase contrast microscope (TS-100, Nikon, Tokyo, Japan) and scanning electron microscope (Hitachi S-4800).
ONC medium comprised DMEM/F12 (Invitrogen), 20 ng/mL bFGF, 20 ng/mL EGF, 2% B27 and 1% penicillin/streptomycin. To prepare the chitosan-containing medium for administration groups, chitosan (C-3646, Sigma, St. Louis, Mo.) was mixed with culture medium (0.1 mg/mL), and adjusted to pH 7.2 with NaOH. Particularly, chitosan solution was prepared by dissolving chitosan in 0.5 M acetic acid.
ONC lysates were obtained from individual culture wells using a RIPA lysis buffer containing protease inhibitor cocktail tablets (Roche Diagnostics GmbH). These samples were then denatured and separated by 12% SDS-PAGE gels, and blotted onto PVDF membranes (Millipore). After blocking in a CIS blocking buffer at room temperature for 60 seconds, the membranes were probed with various primary antibodies at 4° C. overnight. Membranes were incubated with horseradish peroxidase-conjugated secondary antibodies for 1.5 hours, and finally visualized using enhanced chemiluminescence (ECL; Millipore, Billerica, Mass.). After detachment of previous primary antibodies, the membranes were also probed with GAPDH antibodies, which served as an internal control. Images of western blotting were acquired by UVP BioSpectrum 810, and analyzed by Vision Works LS software (UVP, California, USA).
All the measurements were presented as mean±SD. Statistical significance was computed with one-way ANOVA followed by LSD test with p<0.05. All statistical analyses were conducted using Sigma plot v12.5.

[2] = system: human olfactory neuroepithelial cells (ONCs); assay: Western blot analysis of human ONCs (OMP, Golf, βIII tubulin); type: cell-based; settings: 0.1 mg/ml monosaccharide monomer, day 9
Protocol: Human olfactory neuroepithelia were harvested from adult olfactory neuroepithelium during endoscopic sinus surgery. Biopsy specimens were transferred into Hank's balanced salt solution (HBSS), minced finely, and then digested with 0.125% Trypsin/EDTA for 30 minutes at 37° C. After digestion, the pellet was collected by centrifuge and resuspended in the iscove's modified dulbecco's media (IMDM; Invitrogen, Calif., USA) with 10% fetal bovine serum and 1% penicillin/streptomycin Finally, they were seeded to six-wells coated with laminin-co-fibronectin for 21 days, incubated in a humidified atmosphere containing 5% CO2 and 95% air. After 21 days, the medium were changed with induction medium. This induction medium is Dulbecco's Modified Eagle Medium: Nutrient Mixture F-12 (DMEM/F12) (Invitrogen, Calif., USA) supplemented with 2% B-27 serum-free supplement. To prepare the chitosan-containing medium for administration groups, chitosan (C-3646, Sigma-Aldrich, St. Louis, Mo.) was mixed with induction medium (0.1 mg/ml), and adjusted to pH 7.2 with NaOH.
ONC lysates were obtained from individual culture wells using a RIPA lysis buffer containing protease inhibitor cocktail tablets (Roche Diagnostics GmbH). […] Images of western blotting were acquired by UVP BioSpectrum 810, and analyzed by Vision Works LS software (UVP, California, USA). […]

[3] = 0.1 mg/ml monosaccharide monomer

Compound	expression levels of OMP and Golf [1, 3]	expression levels of OMP [2]	expression levels of OMP and Golf ([1]; 0.1 mg/ml proteoglycan or glycosaminoglycan)
CC(=O)N[C@@H]1C(O)O[C@H](CO)[C@@H](O)[C@@H]1O (stereo partly drawn) [ManNAc, N-acetyl-D-mannosamine]	promoted the maturation of ORNs	induced positive effects on human ONCs	
CC(=O)N[C@H]1C(O)O[C@H](CO)[C@@H](O)[C@@H]1O (stereo partly shown) [GlcNAc, N-acetylglucosamine]	promoted the maturation of ORNs		
CC(=O)N[C@H]1C(O)O[C@H](CO)[C@H](O)[C@@H]1O (stereo partly shown) [GalNAc, N-acetylgalactosamine]	promoted the maturation of ORNs	induced positive effects on human ONCs	
N[C@H]1C(O)O[C@H](CO)[C@@H](O)[C@@H]1O (stereo partly shown) [GlcN, glucosamine]	promoted the maturation of ORNs		
heparan sulfate proteoglycan [HSPG]			promoted expression of mature and functional ORNs
